Three molecules from ChEMBL document CHEMBL1155768, “Dexamethasone as adjuvant therapy to moxifloxacin attenuates valve destruction in experimental aortic valve endocarditis due to Staphylococcus aureus” (Antimicrob Agents Chemother, 2007) can be followed below.

In brackets after ≈: the same amount, converted by molar mass. Activity calls are given as the source filed them.

The subject of data set [1] is Staphylococcus aureus. Nature of the data set: Antibacterial activity against Staphylococcus aureus by manual microdilution technique. The data set is classed as functional. On the technique in general: Dilution methods test growth across graded concentrations, often in twofold steps.
In data set [2] the test system is Staphylococcus aureus. In words: Antibacterial activity against Staphylococcus aureus at 0.5 mg/liter by time kill assay. The data set is classed as functional.
Data set [3] has as its system Staphylococcus aureus. In words: Antibacterial activity against Staphylococcus aureus by Etest. Type of data set: functional.
The test system of data set [4] is Staphylococcus aureus. In words: Antibacterial activity against Staphylococcus aureus infection-induced aortic valve endocarditis in rabbit assessed as number of survival days at 20 mg/kg, iv administered every 12 hrs for 5 days. The data set is classed as functional, Aorta.
The test system of data set [5] is Staphylococcus aureus. In words: Antibacterial activity against Staphylococcus aureus infection-induced aortic valve endocarditis in rabbit assessed as cured animals in blood culture at 20 mg/kg, iv administered every 12 hrs for 5 days sacrificed 12 hrs after end of treatment. Type of data set: functional, organism-based. The arrangement: dose 20 mg/kg.
The test system of data set [6] is Staphylococcus aureus. In words: Antibacterial activity against Staphylococcus aureus infection-induced aortic valve endocarditis in rabbit assessed as reduction in bacterial burdens in blood culture at 20 mg/kg, iv administered every 12 hrs for 5 days sacrificed 12 hrs after end of treatment. Type of data set: functional.
Data set [7] concerns Staphylococcus aureus. In words: Antibacterial activity against Staphylococcus aureus infection-induced aortic valve endocarditis in rabbit assessed as cured animals in blood culture at 20 mg/kg, iv administered every 12 hrs for 5 days sacrificed 12 days after last dose. The data set is classed as functional, organism-based. The arrangement: dose 20 mg/kg.
In data set [8] the test system is Staphylococcus aureus. In words: Antibacterial activity against Staphylococcus aureus infection-induced aortic valve endocarditis in rabbit assessed as reduction in bacterial burdens in blood culture at 20 mg/kg, iv administered every 12 hrs for 5 days sacrificed 12 days after last dose. The data set is classed as functional.
For data set [9], the system named is Staphylococcus aureus. In words: Antibacterial activity against Staphylococcus aureus infection-induced aortic valve endocarditis in rabbit assessed as reduction in bacterial burdens in heart valve tissue culture at 20 mg/kg, iv administered every 12 hrs for 5 days sacrificed 12 hrs after end of treatment. Type of data set: functional, Aorta.
Data set [10] relates to Staphylococcus aureus. Nature of the data set: Antibacterial activity against Staphylococcus aureus infection-induced aortic valve endocarditis in rabbit assessed as reduction in bacterial burdens in heart valve tissue culture at 20 mg/kg, iv administered every 12 hrs for 5 days sacrificed 12 days after last dose. Type of data set: functional, Aorta.
Data set [11] in a line: Concentration in Staphylococcus aureus infection-induced aortic valve endocarditis rabbit serum at 20 mg/kg, iv administered every 12 hrs measured 30 mins after third dose. The arrangement: dose 20 mg/kg, route intravenous. To be noted: read-out: Drug uptake. The data set is classed as ADME, organism-based, Oryctolagus cuniculus.
A short description of data set [12]: Concentration in Staphylococcus aureus infection-induced aortic valve endocarditis rabbit serum at 20 mg/kg, iv administered every 12 hrs measured 12 hrs after third dose. The data set is classed as ADME, organism-based, Oryctolagus cuniculus. The arrangement: dose 20 mg/kg, route intravenous. The following applies: read-out: Drug uptake.
Data set [13] is described as follows: AUC (0 to 12 hrs) in Staphylococcus aureus infection-induced aortic valve endocarditis rabbit at 20 mg/kg, iv administered every 12 hrs measured after third dose. Type of data set: ADME, organism-based, Oryctolagus cuniculus. The arrangement: time < 12 hr, dose 20 mg/kg, route intravenous. To be noted: plasma.
A short description of data set [14]: AUC (0 to 12 hrs) in Staphylococcus aureus infection-induced aortic valve endocarditis rabbit at 20 mg/kg, iv administered every 12 hrs measured after seventh dose. The arrangement: time < 12 hr, dose 20 mg/kg, route intravenous. The following applies: plasma. The data set is classed as ADME, organism-based, Oryctolagus cuniculus.
A short description of data set [15]: Concentration in Staphylococcus aureus infection-induced aortic valve endocarditis rabbit serum at 20 mg/kg, iv administered every 12 hrs measured 30 mins after seventh dose in presence of Dexamethasone. Type of data set: ADME, organism-based, Oryctolagus cuniculus. The arrangement: dose 20 mg/kg, route intravenous. To be noted: read-out: Drug uptake.
Data set [16] is described as follows: Concentration in Staphylococcus aureus infection-induced aortic valve endocarditis rabbit serum at 20 mg/kg, iv administered every 12 hrs measured 12hrs after seventh dose in presence of Dexamethasone. The data set is classed as ADME, organism-based, Oryctolagus cuniculus. The arrangement: dose 20 mg/kg, route intravenous. To be noted: read-out: Drug uptake.

Data set [17] in a line: AUC (0 to 12 hrs) in Staphylococcus aureus infection-induced aortic valve endocarditis rabbit at 20 mg/kg, iv administered every 12 hrs measured after seventh dose in presence of Dexamethasone. Type of data set: ADME, organism-based, Oryctolagus cuniculus. The arrangement: time < 12 hr, dose 20 mg/kg, route intravenous. To be noted: plasma.
The test system of data set [18] is Staphylococcus aureus. In words: Cardiovascular activity in Staphylococcus aureus infection-induced aortic valve endocarditis rabbit assessed as increase in fractional shortening at 20 mg/kg, iv administered every 12 hrs for 5 days […]. Type of data set: functional, organism-based. The arrangement: dose 20 mg/kg.
Data set [19] deals with Oryctolagus cuniculus. In words: Toxicity in Staphylococcus aureus infection-induced aortic valve endocarditis rabbit assessed as tissue valve damage median score at 20 mg/kg, iv administered every 12 hrs for 5 days sacrificed 12 days after last dose by histopathology. To be noted: in vivo. The data set is classed as organism-based. The arrangement: dose 20 mg/kg, route intravenous.

The test system of data set [20] is Oryctolagus cuniculus. In words: Toxicity in Staphylococcus aureus infection-induced aortic valve endocarditis rabbit assessed as inflammatory cell infiltration median score at 20 mg/kg, iv administered every 12 hrs for 5 days sacrificed 12 days after last dose by histopathology. The following applies: in vivo, 288 h. The arrangement: dose 20 mg/kg, route intravenous. The data set is classed as organism-based.

In data set [21] the test system is Oryctolagus cuniculus. Nature of the data set: Toxicity in Staphylococcus aureus infection-induced aortic valve endocarditis rabbit assessed as collagenization median score at 20 mg/kg, iv administered every 12 hrs for 5 days sacrificed 12 days after last dose by histopathology. The data set is classed as organism-based. The following applies: in vivo, 288 h. The arrangement: dose 20 mg/kg, route intravenous.

Data set [22] has as its system Oryctolagus cuniculus. In words: Toxicity in Staphylococcus aureus infection-induced aortic valve endocarditis rabbit assessed as fibrous content median score at 20 mg/kg, iv administered every 12 hrs for 5 days sacrificed 12 days after last dose by histopathology. Type of data set: organism-based. The arrangement: dose 20 mg/kg, route intravenous. The following applies: in vivo, 288 h.

Data set [23] has as its system Oryctolagus cuniculus. In words: Toxicity in Staphylococcus aureus infection-induced aortic valve endocarditis rabbit assessed as calcification median score at 20 mg/kg, iv administered every 12 hrs for 5 days sacrificed 12 days after last dose by histopathology. The data set is classed as organism-based. The arrangement: dose 20 mg/kg, route intravenous. To be noted: in vivo, 288 h.

Data set [24] can be described thus: Drug level in Staphylococcus aureus infection-induced aortic valve endocarditis rabbit serum at 20 mg/kg, iv administered every 12 hrs measured 30 mins after seventh dose. The arrangement: dose 20 mg/kg, route intravenous. The data set is classed as ADME, organism-based, Oryctolagus cuniculus. The following applies: read-out: Drug uptake.
Data set [25] is described as follows: Drug level in Staphylococcus aureus infection-induced aortic valve endocarditis rabbit serum at 20 mg/kg, iv administered every 12 hrs measured 12 hrs after seventh dose. The data set is classed as ADME, organism-based, Oryctolagus cuniculus. The arrangement: dose 20 mg/kg, route intravenous. The following applies: read-out: Drug uptake.

In data set [1], `COc1c(N2C[C@@H]3CCCN[C@@H]3C2)c(F)cc2c(=O)c(C(=O)O)cn(C3CC3)c12` [MOXIFLOXACIN] showed an MBC of 0.125 µg/mL (≈ 0.311 µM). The values for the MIC in data set [1] and in data set [3] were 0.125 µg/mL (≈ 0.311 µM) and 0.064 µg/mL (≈ 0.159 µM), respectively. Moreover, the log10CFU/ml in data set [2] is over 3; in [6] it was 2.83; in data set [8], 2.76 log10 CFU/ml. The Survival in data set [4] was 15.3 days. The result in data set [5], in data set [7] and in data set [18] was Active. Also, the log10CFU/g in data set [9] came out at 2.1; in data set [10] it was 2.2. The concentration at 0.5 h was 3730 ng/mL in [11], 3330 ng/mL in [15] and 4390 ng/mL in data set [24]. Besides, the concentration at 12 h was 230 ng/mL in data set [12], 1000 ng/mL in data set [16] and 510 ng/mL in data set [25]. The values for the AUC at 12 h in data set [13], in data set [14] and in data set [17] were 16500 ng·h/mL, 22200 ng·h/mL and 23900 ng·h/mL, respectively. The Activity in [19] is listed as 2.3; in data set [20] it was 1.2; in data set [21], 2; in [22], 1.6; in data set [23] it was 1.6.
In the case of `CC1(C)S[C@@H]2[C@H](NC(=O)[C@H](N)c3ccc(O)cc3)C(=O)N2[C@H]1C(=O)O` [AMOXICILLIN], in data set [1], the MBC is 4 µg/mL (≈ 10.9 µM) and it took 2 µg/mL (≈ 5.47 µM) to inhibit growth (MIC).
In the same order, the values of `Cc1onc(-c2ccccc2)c1C(=O)N[C@@H]1C(=O)N2[C@@H]1SC(C)(C)[C@@H]2C(=O)O` [OXACILLIN] are 0.5 µg/mL (≈ 1.25 µM) and at most 0.25 µg/mL.

As usually defined, the MBC is the smallest concentration meeting the test's criterion for killing. As usually defined, the MIC is the lowest concentration that inhibits growth of the organism. One may read the AUC as the area under the concentration-time curve, a measure of exposure.
